Consider two molecules from US20150183737A1, “COMPOSITIONS AND METHODS FOR SUBSTRATE-SELECTIVE INHIBITION OF ENDOCANNABINOID OXYGENATION” (Vanderbilt University, priority 2012, published 2015).

Experiment [1] has as its target T1, COX-2 (Mus musculus, UniProt Q05769).
T1 sequence (Q05769 18-604): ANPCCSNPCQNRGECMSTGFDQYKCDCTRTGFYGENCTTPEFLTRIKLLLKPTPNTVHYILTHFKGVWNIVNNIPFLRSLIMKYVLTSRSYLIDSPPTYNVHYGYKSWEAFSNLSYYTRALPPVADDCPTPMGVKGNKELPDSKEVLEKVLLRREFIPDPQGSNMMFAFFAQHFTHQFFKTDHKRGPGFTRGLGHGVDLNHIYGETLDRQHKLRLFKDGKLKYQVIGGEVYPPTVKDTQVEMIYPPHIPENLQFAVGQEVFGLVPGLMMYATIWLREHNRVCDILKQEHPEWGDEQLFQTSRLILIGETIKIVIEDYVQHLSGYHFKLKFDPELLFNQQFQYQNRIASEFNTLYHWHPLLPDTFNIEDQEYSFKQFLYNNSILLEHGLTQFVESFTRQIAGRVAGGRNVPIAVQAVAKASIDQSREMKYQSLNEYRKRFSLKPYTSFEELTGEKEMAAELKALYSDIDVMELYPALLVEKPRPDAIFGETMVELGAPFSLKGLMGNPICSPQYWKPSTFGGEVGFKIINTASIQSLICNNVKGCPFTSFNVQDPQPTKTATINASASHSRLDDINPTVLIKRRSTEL
Nature of the experiment: Inhibition of COX-2 oxygenation by acetaminophen and its metabolites. The format is biochemical.

Experiment [2] has as its target T2, COX-2 in lipopolysaccharide-activated RAW264.7 cells (Mus musculus, UniProt Q05769).
T2 construct: endogenous in cells; host or cells: RAW 264.7 macrophages stimulated with LPS (and GM-CSF / interferon γ where described)
T2 sequence (Q05769 18-604): T1 sequence (Q05769 18-604)
Nature of the experiment: 2-AG oxygenation by lipopolysaccharide-activated RAW264.7 cells. In kind it is cell-based.

Experiment [3] concerns the target COX-2 in dorsal root ganglion cells (DRGs) (Mus musculus, UniProt Q05769). As to the method:
Treatment with inflammatory stimuli was performed as described herein below.
DRGs were harvested from E14 mouse embryos and plated onto collagen-coated dishes. After being cultured for 3-5 days, they were treated overnight with granulocyte-macrophage colony-stimulating factor followed by lipopolysaccharide, interferon γ, and 10 μM 15(S)-hydroxy-5,8,11,13-eicosatetraenoic acid for 6 hours.
DRGs, activated as above for 3 hours were treated with ionomycin for an additional 3 hours to stimulate substrate release.
The amounts of prostaglandin, PG-G, and PG-EA were quantified using stable-isotope dilution methods with labeled internal standards.

Experiment [4] addresses T3, purified murine COX-2 (Mus musculus, UniProt Q05769).
T3 sequence (Q05769 18-604): T1 sequence (Q05769 18-604)
To be noted: chiral profens; at 10 μM inhibitor; data taken from reference 10; cited from earlier work.

With `CCCCC/C=C\C/C=C\C/C=C\C/C=C\CCCC(=O)Nc1ccc(O)cc1` [AM-404, N-(4-hydroxyphenyl)arachidonoylamide], the “Selectivity for inhibition of 2-AG and AEA oxygenation compared to AA oxygenation” value in experiment [1] amounted to 700 fold. Besides, the entries for the “Dissociation from COX-2” value in experiment [1] (in the absence of substrate) and in experiment [1] (in the presence of AA) were “slow” and “rapid”, respectively. In addition, the half-inhibitory concentration (IC50) is 97 nM in experiment [1] (read-out: IC50 for inhibition of 2-AG oxygenation) and 46 nM in experiment [2].
Regarding `COc1ccc2cc([C@@H](C)C(=O)O)ccc2c1` [Compound 7b, (R)-naproxen], the “Synthesis of prostaglandins in DRGs” value in experiment [3] (at concentrations that inhibited PG-G and PG-EA synthesis) is listed as “did not inhibit”. The “Amounts of AEA and 2-AG in cell extracts” value in experiment [3] (stimulated DRGs) was “increased”. Besides, the “% Inhibition AA” value in experiment [4] is reported as 0%.
